Active and inactive are the calls of the source. No cut-off for these calls is given here. Residues, ends and D or L forms follow the SMILES beside them.
biological target: T1, Thrombopoietin receptor (Homo sapiens) (UniProt P40238); assay: Binding affinity to c-Mpl (unknown origin) expressed in […] NIH-3T3 cells after 48 hrs by dual-glo luciferase reporter gene assay relative to control; assay type: cell-based; conditions: NIH3T3
T1 sequence (whole entry): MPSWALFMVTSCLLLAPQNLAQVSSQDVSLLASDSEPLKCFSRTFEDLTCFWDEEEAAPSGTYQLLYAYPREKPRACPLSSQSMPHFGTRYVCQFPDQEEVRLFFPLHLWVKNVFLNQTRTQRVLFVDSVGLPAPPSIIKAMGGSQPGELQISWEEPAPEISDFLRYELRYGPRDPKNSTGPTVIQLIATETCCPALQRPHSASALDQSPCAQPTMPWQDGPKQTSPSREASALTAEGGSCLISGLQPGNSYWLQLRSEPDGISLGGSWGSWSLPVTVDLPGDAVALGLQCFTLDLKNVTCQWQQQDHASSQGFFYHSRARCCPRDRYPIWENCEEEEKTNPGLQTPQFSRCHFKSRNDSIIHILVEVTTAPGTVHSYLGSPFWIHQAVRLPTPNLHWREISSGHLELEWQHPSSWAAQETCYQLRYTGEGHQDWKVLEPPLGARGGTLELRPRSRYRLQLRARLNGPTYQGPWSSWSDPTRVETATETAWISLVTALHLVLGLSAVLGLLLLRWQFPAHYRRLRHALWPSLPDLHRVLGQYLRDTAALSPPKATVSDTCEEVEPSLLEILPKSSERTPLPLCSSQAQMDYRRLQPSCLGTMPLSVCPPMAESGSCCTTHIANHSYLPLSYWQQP

| Structure (SMILES) | Activity |
| --- | --- |
| CC[C@H](C)[C@H](N)C(=O)N[C@@H](CCC(=O)O)C(=O)NCC(=O)N1CCC[C@H]1C(=O)N[C@H](C(=O)N[C@@H](CC(C)C)C(=O)N[C@@H](CCCNC(=N)N)C(=O)N[C@@H](CCC(N)=O)C(=O)N[C@@H](Cc1c[nH]c2ccccc12)C(=O)N[C@@H](CC(C)C)C(=O)N[C@@H](C)C(=O)N[C@@H](C)C(=O)N[C@@H](CCCNC(=N)N)C(=O)N[C@@H](C)C(=O)NCC(=O)NCC(=O)NCC(=O)NCC(=O)N[C@@H](CO)C(=O)NCC(=O)NCC(=O)NCC(=O)N[C@@H](CO)C(=O)NCC(=O)N[C@H](C(=O)N[C@@H](CCC(=O)O)C(=O)NCC(=O)N1CCC[C@H]1C(=O)N[C@H](C(=O)N[C@@H](CC(C)C)C(=O)N[C@@H](CCCNC(=N)N)C(=O)N[C@@H](CCC(N)=O)C(=O)N[C@@H](Cc1c[nH]c2ccccc12)C(=O)N[C@@H](CC(C)C)C(=O)N[C@@H](C)C(=O)N[C@@H](C)C(=O)N[C@@H](CCCNC(=N)N)C(=O)N[C@@H](C)C(=O)O)[C@@H](C)O)[C@@H](C)CC)[C@@H](C)O (H-IEGPTLRQWLAARAGGGGSGGGSGIEGPTLRQWLAARA-OH) | Active |
| CC[C@H](C)[C@H](N)C(=O)N[C@@H](CCC(=O)O)C(=O)NCC(=O)N1CCC[C@H]1C(=O)N[C@H](C(=O)N[C@@H](CC(C)C)C(=O)N[C@@H](CCCNC(=N)N)C(=O)N[C@@H](CCC(N)=O)C(=O)N[C@@H](Cc1c[nH]c2ccccc12)C(=O)N[C@@H](CC(C)C)C(=O)N[C@@H](C)C(=O)N[C@@H](C)C(=O)N[C@@H](CCCNC(=N)N)C(=O)N[C@@H](C)C(=O)NCC(=O)NCC(=O)NCC(=O)N[C@@H](CO)C(=O)NCC(=O)N[C@H](C(=O)N[C@@H](CCC(=O)O)C(=O)NCC(=O)N1CCC[C@H]1C(=O)N[C@H](C(=O)N[C@@H](CC(C)C)C(=O)N[C@@H](CCCNC(=N)N)C(=O)N[C@@H](CCC(N)=O)C(=O)N[C@@H](Cc1c[nH]c2ccccc12)C(=O)N[C@@H](CC(C)C)C(=O)N[C@@H](C)C(=O)N[C@@H](C)C(=O)N[C@@H](CCCNC(=N)N)C(=O)N[C@@H](C)C(=O)O)[C@@H](C)O)[C@@H](C)CC)[C@@H](C)O (H-IEGPTLRQWLAARAGGGSGIEGPTLRQWLAARA-OH) | Active |
| CC[C@H](C)[C@H](N)C(=O)N[C@@H](CCC(=O)O)C(=O)NCC(=O)N1CCC[C@H]1C(=O)N[C@H](C(=O)N[C@@H](CC(C)C)C(=O)N[C@@H](CCCNC(=N)N)C(=O)N[C@@H](CCC(N)=O)C(=O)N[C@@H](Cc1c[nH]c2ccccc12)C(=O)N[C@@H](CC(C)C)C(=O)N[C@@H](C)C(=O)N[C@@H](C)C(=O)N[C@@H](CCCNC(=N)N)C(=O)N[C@@H](C)C(=O)NCC(=O)NCC(=O)N1CCC[C@H]1C(=O)N[C@@H](CO)C(=O)NCC(=O)N[C@H](C(=O)N[C@@H](CCC(=O)O)C(=O)NCC(=O)N1CCC[C@H]1C(=O)N[C@H](C(=O)N[C@@H](CC(C)C)C(=O)N[C@@H](CCCNC(=N)N)C(=O)N[C@@H](CCC(N)=O)C(=O)N[C@@H](Cc1c[nH]c2ccccc12)C(=O)N[C@@H](CC(C)C)C(=O)N[C@@H](C)C(=O)N[C@@H](C)C(=O)N[C@@H](CCCNC(=N)N)C(=O)N[C@@H](C)C(=O)O)[C@@H](C)O)[C@@H](C)CC)[C@@H](C)O (H-IEGPTLRQWLAARAGGPSGIEGPTLRQWLAARA-OH) | Active |

From ChEMBL document CHEMBL3875212, “Novel thrombopoietin mimetic peptides bind c-Mpl receptor: Synthesis, biological evaluation and molecular modeling” (Bioorg Med Chem, 2017)
